We go through 13 substances from patent publication US8685372B2, “Peptides and aptamers for targeting of neuron or nerves” (The Regents of the University of California, priority 2009, dated 2014).

Entries after “also recorded” stand apart in the source; their conditions may differ. No end group written: not given here. heptamethinecyanine derivative = not defined here; Cy5 = Cy5 cyanine fluorescent dye label; 5,6FAM = 5(6)-carboxyfluorescein label

One data set has as its system sciatic nerves. Description: In vivo nerve labeling with fluorescently labeled peptides (nerve versus adjacent non-nerve tissue). Also on record: species or system mice. The conditions noted are these: for Nerve contrast: derivatives of peptide SEQ ID NO: 4; for nerve to muscle contrast: FAM-labeled peptides intravenously, living mice, after wash-out. How it is done:
To test the nerve binding affinity of each of the isolated peptide sequences in vivo, carboxyfluorescein (FAM)-labeled peptides were injected intravenously into living mice. Following a wash-out period, the contrast between nerve and muscle binding of the labeled peptides was evaluated.
Wild-type albino C57BL6 (Jackson Laboratory) or SKH1 (Charles River Laboratories) mice were treated intravenously with 150 nmoles of fluorescently labeled SEQ ID NO:4 via tail vein injection. Following a 2-3 hour wash-out period for SEQ ID NO:25 or 5-6 hours for SEQ ID NO:31, mice were anesthetized with ketamine and midazolam (80 mg/kg intraperitoneally), a skin incision was made over the dorsal surface of the hind, legs and the sciatic nerves exposed bilaterally. […] Nerves and adjacent non-nerve tissue was delineated with Image J and relative fluorescence was measured. Following background subtraction using dark current measurements and measurements of a standard, the ratios of peptide binding to nerve versus adjacent non-nerve tissue were calculated.

A short description of data set [1]: Peptide biodistribution and metabolism (organ fluorescence, LC-MS and MALDI of urine). It is filed as in vivo, mice. The procedure:
(§1) To evaluate the biodistribution of the peptide following systemic administration, organs were harvested from mice treated with SEQ ID NO:4 and fluorescence uptake was evaluated. […] To evaluate the metabolism of the peptide as it passed through the renal system, liquid chromatography-mass spectrometry (LC-MS, Agilent) tracing was used to compare urine obtained from mice injected with SEQ ID NO:25 or SEQ ID NO:31 intravenously versus urine from normal mice spiked with the native SEQ ID NO:25 or SEQ ID NO:31. […] Next, matrix-assisted. laser desorption/ionization (MALDI) was used to evaluate the nature of the modification to the peptide as it was metabolized.
as §1, with “NO:25 and” for “NO:25 or”, “ID NO:3” for “ID NO:31”, “ID NO:25.” for “ID NO:25 or SEQ ID NO:31.”, “Next, matrix-assisted” for “Next, matrix-assisted.”

A further data set concerns sciatic nerve. Description: Histology: localization of binding in nerves of thy1-YFP transgenic mice. In kind it is in vivo. The source says:
To evaluate the localization of SEQ ID NO:4 binding in nerves, we treated thy1-YFP transgenic mice whose axons are genetically encoded with YFP under a neuron specific promoter (Feng et al, Imaging neuronal subsets in transgenic mice expressing multiple spectral variants of GFP. Neuron, 2000) with SEQ ID NO:31. […] These deeper nerve structures were not easily seen either with brightfield (FIG. 5A, insert) or YFP (FIG. 5B, insert) imaging. To evaluate the localization of SEQ ID NO:4 binding on a cellular level, we imaged cryosections (3-5 μm) of nerves and attached muscles from thy1-YFP animals treated with SEQ ID NO:31.

A further data set relates to dissected nerve tissue. Description: In vitro nerve binding: dissected nerve tissue incubated with peptide. Also on record: species or system mice. The conditions noted are these: 100 nM peptide, one hour incubation.

Protocol for dissected nerve tissue: To test the nerve binding affinity of each of the isolated peptide sequences in vitro, dissected nerve tissue was removed from mice and incubated for one hour with 100 nM of each peptide, including a control peptide made up of amino acids that were contained within the various phages selected and sequenced, but in a mixed-up order and designed without repeating any single amino acid except for glycine (which was added to the C-terminus as a flexible linker).

For the substance “ACETYL-SHSNTQTLAKAPEHTG-(L-cys)-(Cy5)-amide (Ac-SHSNTQTLAKAPEHTGC(Cy5)-NH2; also: Cy5 on C-terminal Cys, attachment site not given here) [SEQ ID NO:31]”, the Nerve contrast result with sciatic nerves is on record as “Medium/High”. Further, the “native peptide detectable in urine of intravenously injected mice” value in data set [1] (LC-MS) is on record as “none”. Further, in data set [1] (MALDI), the “only fluorescently labeled entity identified in urine” value is “cysteine-Cy5”. Further, in the data set on sciatic nerve (Cy5 fluorescence versus YFP and brightfield), the “labeling of nerves genetically encoded with YFP” value is given as “precisely labels nerves”. Moreover, in the data set on sciatic nerve (cryosections of nerves), the “localization of labeling within nerve” value is “most localized to the epineurium of the nerves with some labeling of the perineurium and endoneurium; also recorded: labeling of epineurium, perineurium and endoneurium”. For the same substance, the “tissue penetration compared to imaging in the visible range” value in the data set with sciatic nerve (mouse, in vivo) is reported as “deeper tissue penetration”.
As to “AHHNSWKAKHHS (peptide that specifically binds to a neuron, nerve, or component of either) [SEQ ID NO:1]”, the “uptake/binding to dissected nerve tissue compared to no peptide or control peptide” value with dissected nerve tissue was “two-fold increase over control to no difference from control”. Also, the “nerve to muscle contrast” value in the data set on sciatic nerves is “little significant nerve-to muscle contrast”.
Regarding “DFTKTSPLGIH (peptide that specifically binds to a neuron, nerve, or component of either) [SEQ ID NO:5]”, in the data set with dissected nerve tissue, the “uptake/binding to dissected nerve tissue compared to no peptide or control peptide” value was “two-fold increase over control to no difference from control”. The “nerve to muscle contrast” value in the data set on sciatic nerves was “exhibited nerve to muscle contrast, although at a lower level than that of SEQ ID NO:4”.
In the case of “Free amine- SHSNTQTLAKAPEHTG-(L-cys)-(5,6FAM)-amide (H-SHSNTQTLAKAPEHTGC(5,6FAM)-NH2; not fully specified) [SEQ ID NO: 47]”, the Nerve contrast entry with sciatic nerves was “Medium/High”.
As for “KSLSRHDHIHHH (peptide that specifically binds to a neuron, nerve, or component of either) [SEQ ID NO:3]”, the “uptake/binding to dissected nerve tissue compared to no peptide or control peptide” value in the data set with dissected nerve tissue is “two-fold increase over control to no difference from control”. Besides, in the data set with sciatic nerves, the “nerve to muscle contrast” value is “exhibited nerve to muscle contrast, although at a lower level than that of SEQ ID NO:4”.
For the substance “acetyl- SHSNTQTLAKAPEHTG(L-cys)(5,6FAM)-amide (Ac-SHSNTQTLAKAPEHTGC(5,6FAM)-NH2; not fully specified) [SEQ ID NO: 46]”, the Nerve contrast result with sciatic nerves is listed as “Medium/High”.
On the same count and under the same terms, under “acetyl- SHSNTQTLAKAPEHTG-(D-cys)-(5,6FAM)-amide (Ac-SHSNTQTLAKAPEHTG; not fully specified (C-terminus); also: 5,6FAM on C-terminal D-Cys, attachment site not given here)” stands “Medium”.
On to “acetyl- SHSNTQTLAKAPEHTG-(D-cys)-(cy5)-amide (Ac-SHSNTQTLAKAPEHTG; not fully specified (C-terminus))”, for which, in the data set on sciatic nerves, the Nerve contrast result is reported as “Medium”.
On to “acetyl- SHSNTQTLAKAPEHTG-(L-cys)-(IR800CW) (Ac-SHSNTQTLAKAPEHTGC(IR800CW); not fully specified) [SEQ ID NO: 48]”, for which, in the data set on sciatic nerves, the Nerve contrast result is “Low”.
For the substance “acetyl- SHSNTQTLAKAPEHTG-(L-cys)-(Texas Red)-amide (Ac-SHSNTQTLAKAPEHTGC(Texas Red)-NH2) [SEQ ID NO: 50]”, the Nerve contrast entry with sciatic nerves is given as “Medium”.
Consider “acetyl- SHSNTQTLAKAPEHTG-(L-cys)-(heptamethinecyanine derivative) (Ac-SHSNTQTLAKAPEHTGC(heptamethinecyanine derivative); not fully specified; reading uncertain) [SEQ ID NO: 52]”, for which, in the data set on sciatic nerves, the Nerve contrast entry is given as “Low”.
As to “acetyl- SHSNTQTLAKAPEHTG-(L-cys)-(indocyanine green derivative) [SEQ ID NO: 51]”, in the data set on sciatic nerves, the Nerve contrast entry is recorded as “Low”.
“acetyl- SHSNTQTLAKAPEHTG-(L-cys-)-(TAMRA)-amide (Ac-SHSNTQTLAKAPEHTGC(TAMRA)-NH2) [SEQ ID NO: 49]”: in the data set with sciatic nerves, the Nerve contrast result is “Medium”.
